In PubChem BioAssay AID1959 (Broad Institute, 2009):
Activity calls are given as the source filed them.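 The calls were made as follows: active = growth-inhibition EC50 no more than tenfold above the top tested dose; inconclusive = flat fit between 30% and 70% inhibition, or unreliable fit; inactive = EC50 more than tenfold above the top tested dose.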

Tested on: E. coli NEB5alpha growth, BacTiter-Glo luminescence, 4 h
Assay: antibacterial activity against E. coli NEB5alpha – luminescence, counter-screen for MEX-5/POS-1 RNA-binding inhibitor project, dose response (AID 1959);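 also: pUC19-transformed ampicillin-resistant cells grown in LB with ampicillin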

| SMILES | EC50 |
| --- | --- |
| CC1(C)CC(=O)C2=C(C1)OC(/N=C/N1CCOCC1)=C(C#N)C2c1ccccc1 (configuration not stated) | > 11 µM (inactive) |
| Cc1n[nH]c(=O)nc1N/N=C/c1ccc(O)c([N+](=O)[O-])c1 | > 11 µM (inactive) |
| O=C(O)CCCN1C(=O)/C(=C/c2ccc(-c3nc4ccccc4s3)o2)SC1=S | > 11 µM (inactive) |
| CC1CCN(C(=O)CCN2C(=O)/C(=C/c3cccs3)SC2=S)CC1 | > 11 µM (inactive) |
| CN(C)c1ccc2nc3ccc(=[N+](C)C)cc-3sc2c1 | > 11 µM (inactive) |
| Cc1cc(O)cc2c1C(=O)/C(=C/c1ccco1)O2 | > 11 µM (inactive) |
| CCCCC1=CC2=CC(=O)C(C)(O)C(=O)C2=CO1 (configuration not stated) | > 11 µM (inactive) |
| COC(=O)CNc1cccc(C(F)(F)F)c1 | > 11 µM (inactive) |
| Cc1nc(S/C(=C/c2ccc(-c3cc(Cl)ccc3C)o2)C(=O)O)n[nH]1 | > 11 µM (inactive) |
| O=C(Nc1nccs1)c1ccc(-c2ccc([N+](=O)[O-])cc2)o1 | > 11 µM (inactive) |
| O=C(NN1C(=O)c2ccccc2NC1c1ccccn1)c1ccc([N+](=O)[O-])cc1 (configuration not stated) | > 11 µM (inactive) |
| COCCCn1c(N)c(-c2nc3ccccc3n2C)c2nc3ccccc3nc21 | > 11 µM (inactive) |
| COc1ccc2nc(SCC(=O)Nc3nonc3C)[nH]c2c1 | > 11 µM (inactive) |
| CCc1c(C)nc(SCC(=O)c2cccs2)c(C#N)c1C | > 11 µM (inactive) |
| Cc1ccccc1N=C1NC(=O)/C(=C/c2cccn2-c2cccc(C(=O)O)c2)S1 | > 11 µM (inactive) |
| CCCCC1=CC2=C(c3ccco3)C(=O)C(C)(OC(=O)c3ccc(OC)cc3)C(=O)C2=CN1C1CC1 (configuration not stated) | > 11 µM (inactive) |
| Cc1cc(/C=C2/C(=O)NC(=O)N(c3ccccc3)C2=O)c(C)n1-c1ccc(F)cc1 | > 11 µM (inactive) |
| COc1ccc(C2C(C#N)=C(N)OC3=C2C(=O)CCC3)cc1Cn1nc(C)c([N+](=O)[O-])c1C (configuration not stated) | > 11 µM (inactive) |
| O=C(O)CC(C(=O)O)N1C(=O)/C(=C/C=C/c2ccco2)SC1=S (configuration not stated) | > 11 µM (inactive) |
| CCOC(=O)N1CC=C2C(C#N)=C(N)C(C#N)(C#N)[C@H](c3ccsc3)[C@H]2C1 | > 11 µM (inactive) |
| COc1ccc(Nc2nc(-c3cccnc3)nc3ccccc23)cn1 | > 11 µM (inactive) |
| Oc1ccc(/C=N/N2CCCCC2)c(O)c1O | > 11 µM (inactive) |
| O=C(/C=C/c1ccco1)NC(=S)Nc1cccc(C(=O)O)c1 | > 11 µM (inactive) |

| SMILES | EC50 |
| --- | --- |
| N=c1c(C(=O)NC2CCCCC2)cc2c(=O)n3ccccc3nc2n1Cc1ccc(F)cc1 | > 11 µM (inactive) |
| COC(=O)c1ccc(C2Nc3ccc(/C(C)=N/NC(=O)C(OC)c4ccccc4)cc3C3C=CCC32)cc1 (configuration not stated) | > 11 µM (inactive) |
| CCOc1ccc(S(=O)(=O)Nc2cc(Sc3ncn[nH]3)c3oc(=O)sc3c2)cc1 | > 11 µM (inactive) |
| Cc1cccc(CN2C(=O)N/C(=C/c3ccc(C)s3)C2=O)c1 | > 11 µM (inactive) |
| N#CC1=C(N)C(C#N)(C#N)C(c2cccnc2)C2CCCC=C12 (configuration not stated) | > 11 µM (inactive) |
| CCCCN1C(=O)/C(=C2/Sc3ccc(OC)cc3N2CC)SC1=S | > 11 µM (inactive) |
| CCCCC1=CC2=CC(=O)C(C)(OC(=O)CCc3ccccc3)C(=O)C2=CO1 (configuration not stated) | > 11 µM (inactive) |
| NS(=O)(=O)c1ccc2c(c1)C1C=CCC1C(C1CC=CCC1)N2 (configuration not stated) | > 11 µM (inactive) |
| CCOC(=O)c1cc(CC)sc1/N=C/c1c(O)[nH]c(=S)[nH]c1=O | > 11 µM (inactive) |
| COC(=O)CCCC1=CC2=CC(=O)C(C)(O)C(=O)C2=CO1 (configuration not stated) | > 11 µM (inactive) |
| COC(=O)CCCC1=CC2=CC(=O)C(C)(OC(=O)C3CCCC3)C(=O)C2=CO1 (configuration not stated) | > 11 µM (inactive) |
| N#CC1=C(N)OC2=C(C(=O)CCC2)C12C(=O)N1CCCc3cccc2c31 (configuration not stated) | > 11 µM (inactive) |
| CCOc1cc(C2C(C#N)=C(N)OC3=C2C(=O)CC(C)(C)C3)cc([N+](=O)[O-])c1O (configuration not stated) | > 11 µM (inactive) |
| O=S(=O)(c1cccc(-c2csc(-c3cccnc3)n2)c1)N1CCOCC1 | > 11 µM (inactive) |
| Cc1ccc(O)c(-c2cc(C(=O)Nc3ccc(S(=O)(=O)Nc4nccc(C)n4)cc3)[nH]n2)c1 | > 11 µM (inactive) |
| Cn1c(O)c(/C=C2\C=Nc3ccccc32)c(=O)n(C)c1=O | > 11 µM (inactive) |
| NC(=O)Cn1cc(C=C2C(=O)NC(=O)NC2=O)c2ccccc21 | > 11 µM (inactive) |
| Cc1cc(C(F)(F)F)c2c(N)c(C(=O)Nc3cc(C)on3)sc2n1 | > 11 µM (inactive) |
| COc1cccc2c1NC(C(=O)O)C1CC=CC21 (configuration not stated) | > 11 µM (inactive) |
| C/C(N)=C(/C#N)C(=O)CSc1ncnc2ccccc12 | > 11 µM (inactive) |
| CCOC(=O)C1Nc2ccc(C(=O)O)cc2C2C=CCC12 (configuration not stated) | > 11 µM (inactive) |
| O=C(/C=C/c1ccco1)NC(=S)NNC(=O)c1ccco1 | > 11 µM (inactive) |
| CN(C)C1=NC(=O)/C(=C/c2ccc(-c3ccc(S(N)(=O)=O)cc3)o2)S1 | > 11 µM (inactive) |

| SMILES | EC50 |
| --- | --- |
| CCOC(=O)[C@@]1(C#N)C(c2ccc(Cl)c(Cl)c2)[C@H](C(N)=O)N2C=C(C(C)=O)C=C[C@H]21 (some centres not stated) | > 11 µM (inactive) |
| C=CCOc1cccc(C2C(C(=O)c3ccc(C)o3)=C(O)C(=O)N2c2nnc(C)s2)c1 (configuration not stated) | > 11 µM (inactive) |
| CC(=O)Nc1ccc(S(=O)(=O)NCc2nc(-c3cccc(C)c3)no2)cc1 | > 11 µM (inactive) |
| CCN(CC)CCN1C(=O)C(O)=C(C(=O)c2cc3cccc(OC)c3o2)C1c1ccc(F)cc1 (configuration not stated) | > 11 µM (inactive) |
| CCCCC1=CC2=CC(=O)C(C)(OC(=O)c3cccs3)C(=O)C2=CO1 (configuration not stated) | > 11 µM (inactive) |
| CCN(CC)S(=O)(=O)c1ccc(N=Cc2c(C)c(C#N)c(=O)n(C)c2O)cc1 | > 11 µM (inactive) |
| C=CCNC(=S)N1CCN(c2cccc(C(F)(F)F)c2)CC1 | > 11 µM (inactive) |
| COc1ccc(Nc2nc3ccccc3nc2NS(=O)(=O)c2cccs2)c(OC)c1 | > 11 µM (inactive) |
| CCN(CC)c1ccc(N=Cc2c(O)n(Cc3ccccc3)c(=O)[nH]c2=O)cc1 | > 11 µM (inactive) |
| CCOC(=O)C1CCN(C(=O)c2ccc3c(c2)NC(=O)/C(=C\c2ccc(C)cc2)S3)CC1 | > 11 µM (inactive) |
| O=C(CCl)NCCN1C(=O)S/C(=C\c2cccnc2)C1=O | > 11 µM (inactive) |
| COc1ccc(C2=CC3=CC(=O)C(C)(O)C(=O)C3=CO2)cc1 (configuration not stated) | > 11 µM (inactive) |
| O=c1[nH]c(=O)n(-c2cccc(F)c2)c(O)c1/C=C1\C=Nc2ccccc21 | > 11 µM (inactive) |
| Cc1c(N=C2Nc3cccc4cccc2c34)c(=O)n(-c2ccccc2)n1C | > 11 µM (inactive) |
| CCOC(CNC(=O)CCc1c(C)nc2nc(C)nn2c1C)OCC | > 11 µM (inactive) |
| CC(C)c1ccc(C2C(C#N)=C(N)N3C(=C2C#N)Sc2ccccc23)cc1 (configuration not stated) | > 11 µM (inactive) |
| O=c1[nH]c(CSc2ncccn2)nc2c1cnn2-c1ccccc1 | > 11 µM (inactive) |
| COc1ccc(C2C(C(=O)c3ccco3)=C(O)C(=O)N2c2nnc(C)s2)cc1 (configuration not stated) | > 11 µM (inactive) |
| Cc1ccc(-c2nnc(Nc3ccc(CC(N)=O)cc3)c3ccccc23)cc1S(N)(=O)=O | > 11 µM (inactive) |
| Nc1ccc2nc3c(=O)[nH]c(=S)[nH]c3nc2c1 | > 11 µM (inactive) |
| Cc1c(NC(=O)CSc2ccc(Cl)cc2)cccc1-c1nc2cc(Cl)ccc2o1 | > 11 µM (inactive) |
